Test results taken from patent US20260008780A1, “SUBSTITUTED 3,4-DIHYDROISOQUINOLIN-1(2H)-ONE DERIVATIVES AND RELATED USES” (NodThera Limited, priority 2022, published 2026).

Tested on: IL-1β release upon NLRP3 activation in peripheral blood mononuclear cells (PBMC)
Assay: PBMC IC50 Determination Assay
Type: cell-based
Details: Homo sapiens; PBMC from buffy coats, LPS 3 h, compound 30 min, then ATP (5 mM) or nigericin (10 μM) 1 h; IL-1β in media by ELISA (Protocol A) or HTRF (Protocol B)
Description: The compounds of the present disclosure were tested for their inhibitory activity against IL-1β release upon NLRP3 activation in peripheral blood mononuclear cells (PBMC).
Protocol A. PBMC were isolated from buffy coats by density gradient centrifugation on Histopaque-1077 (Sigma, cat no. 10771). Isolated cells were seeded into the wells of a 96-well plate and incubated for 3 h with lipopolysaccharide (LPS). Following medium exchange, the compounds of the present disclosure were added (a single compound per well) and the cells were incubated for 30 min. Next, the cells were stimulated either with ATP (5 mM) or nigericin (10 μM) for 1 h and the cell culture media from the wells were collected for further analysis.
The release of IL-1β into the media was determined by a quantitative detection of IL-1β in the media using an IL-1p enzyme-linked immunosorbent assay (ELISA) Ready-SET-Go!, eBioscience cat. No. 88-7261-88. Briefly, in a first step, high affinity binding plates (Corning, Costar 9018 or NUNC Maxisorp Cat No. 44-2404) were coated overnight at 4° C. with specific capture antibody included in the kit (anti-human IL-1β ref 14-7018-68). Subsequently, plates were blocked with blocking buffer for 1 h at room temperature (rt) and after washing with a buffer (PBS with 0.05% Tween-20) incubated with protein standard and culture media. After 2 h of incubation at rt, plates were washed and incubated with biotinylated detection antibody included in the kit (anti-human IL-1β Biotin ref. 33-7110-68) for 1 h at rt. Plates were washed and incubated with HRP-streptavidin for 30 min at rt and washed again. The signal was developed after addition of 3,3′,5,5′-tetramethylbenzidine-peroxidase (TMB) until colour appeared and the reaction was stopped by 2 M H2SO4. A microplate spectrophotometer (BioTek) was used to detect signals with 450 nm. The detection range of IL-1β ELISA was […].
Protocol B. PBMC were isolated from buffy coats by density gradient centrifugation on Histopaque-1077 (Sigma, cat no. 10771). Isolated cells were seeded into the wells (280,000 cells/well) of a 96-well plate and incubated for 3 h with lipopolysaccharide (LPS, 1 μg/mL diluted 1000× from a 1 mg/mL stock solution). The compounds of the present disclosure were added (a single compound per well) and the cells were incubated for 30 min. Next, the cells were stimulated with ATP (5 mM final concentration diluted 20× from a 100 mM stock solution) for 1 h and the cell culture media from the wells were collected for further analysis.
The release of IL-1β into the media was determined by quantitative detection of IL-1β in the media using HTRF®, CisBio cat. No. 62HIL1BPEH. Briefly, cell culture supernatant were dispensed directly into the assay plate containing antibodies labelled with the HTRF® donor and acceptor. A microplate spectrophotometer (BMG) was used to detect signals at 655 nm and 620 nm. The detection range of IL-1β HTRF® was 39-6500 μg/mL.

Structure (SMILES)	IC50 [nM]
CCc1cc2c(s1)C(=O)N(CC(=O)Nc1ncc(C#N)cn1)CC21CC1 [Compound 63, N-(5-Cyanopyrimidin-2-yl)-2-{2′-ethyl-7′-oxo-6′,7′-dihydro-5′H-spiro[cyclopropane-1,4′-thieno[2,3-c]pyridin]-6′-yl}acetamide]	100 to 1000
CCc1cc2c(s1)C(=O)N(CC(=O)Nc1ccc3[nH]c(=O)n(C)c3c1)CC21CC1 [Compound 49, 2-{2′-Ethyl-7′-oxo-6′,7′-dihydro-5′H-spiro[cyclopropane-1,4′-thieno[2,3-c]pyridin]-6′-yl}-N-(3-methyl-2-oxo-2,3-dihydro-1H-1,3-benzodiazol-5-yl)acetamide]	3000 to 10000
C[C@@H]1CN(CC(=O)Nc2ncccn2)C(=O)c2sc(C3CC3)nc21 [Compound 77]	1000 to 3000
CCc1cc2c(s1)C(=O)N(CC(=O)Nc1ncc(N)cn1)CC21CC1 [Compound 60, N-(5-Aminopyrimidin-2-yl)-2-{2′-ethyl-7′-oxo-6′,7′-dihydro-5′H-spiro[cyclopropane-1,4′-thieno[2,3-c]pyridin]-6′-yl}acetamide]	100 to 1000
CCOC(=O)c1cnc(NC(=O)CN2CC3(CC3)c3nc(C4CC4)sc3C2=O)nc1 [Compound 16, Ethyl 2-[[2-(2-cyclopropyl-4-oxo-spiro[6H-thiazolo[5,4-c]pyridine-7,1′-cyclopropane]-5-yl)acetyl]amino]pyrimidine-5-carboxylate]	1000 to 3000
CCc1cc2c(s1)C(=O)N(CC(=O)Nc1ncc(C#N)cc1F)CC21CC1 [Compound 66, N-(5-cyano-3-fluoropyridin-2-yl)-2-(2′-ethyl-7′-oxo-5′H-spiro[cyclopropane-1,4′-thieno[2,3-c]pyridin]-6′(7′H)-yl)acetamide]	100 to 1000
CCc1cc2c(s1)C(=O)N(CC(=O)Nc1ncc(Cl)cc1F)CC21CC1 [Compound 57, N-(5-Chloro-3-fluoropyridin-2-yl)-2-{2′-ethyl-7′-oxo-6′,7′-dihydro-5′H-spiro[cyclopropane-1,4′-thieno[2,3-c]pyridin]-6′-yl}acetamide]	1000 to 3000
Cc1nc(NC(=O)CN2CC3(CC3)n3c(cc4sc(Cl)cc43)C2=O)ns1 [Compound 5, 2-(4-Chloro-9-oxo-spiro[5-thia-1,10-diazatricyclo[6.4.0.0^2,6]dodeca-2(6),3,7-triene-12,1′-cyclopropane]-10-yl)-N-(5-methyl-1,2,4-thiadiazol-3-yl)acetamide]	1000 to 3000
CC(C)c1cc2n(n1)C1(CC1)CN(CC(=O)Nc1ncccn1)C2=O [Compound 8, 2-(2-Isopropyl-4-oxo-spiro[6H-pyrazolo[1,5-a]pyrazine-7,1′-cyclopropane]-5-yl)-N-pyrimidin-2-yl-acetamide]	3000 to 10000
C[C@]1(O)C[C@@H](NC(=O)CN2CC3(CC3)n3c(cc4sc(Cl)cc43)C2=O)C1 [Compound 2, cis-2-(4-Chloro-9-oxo-spiro[5-thia-1,10-diazatricyclo[6.4.0.0^2.6]dodeca-2(6),3,7-triene-12,1′-cyclopropane]-10-yl)-N-(3-hydroxy-3-methylcyclobutyl) acetamide]	1000 to 3000
CCc1cc2c(s1)C(=O)N(CC(=O)Nc1ccc3nncn3c1)CC21CC1 [Compound 47, 2-{2′-Ethyl-7′-oxo-6′,7′-dihydro-5′H-spiro[cyclopropane-1,4′-thieno[2,3-c]pyridin]-6′-yl}-N-{[1,2,4]triazolo[4,3-a]pyridin-6-yl}acetamide]	1000 to 3000
CC1(c2cc3c(s2)C(=O)N(CC(=O)Nc2ncccn2)CC32CC2)CC1 [Compound 27, 2-(2′-(1-Methylcyclopropyl)-7′-oxo-5′H-spiro[cyclopropane-1,4′-thieno[2,3-c]pyridin]-6′(7′H)-yl)-N-(pyrimidin-2-yl)acetamide]	100 to 1000
CCc1nc2c(s1)C(=O)N(CC(=O)Nc1ncccn1)CC21CC1 [Compound 13, 2-(2-Ethyl-4-oxo-spiro[6H-thiazolo[5,4-c]pyridine-7,1′-cyclopropane]-5-yl)-N-pyrimidin-2-yl-acetamide]	3000 to 10000
CCn1cc2c(n1)C1(CC1)CN(CC(=O)Nc1ncc(F)cn1)C2=O [Compound 7, 2-(2-Ethyl-4-oxo-spiro[6H-pyrazolo[4,3-c]pyridine-7,1′-cyclopropane]-5-yl)-N-(5-fluoropyrimidin-2-yl)acetamide]	1000 to 3000
CCc1cc2c(s1)C(=O)N(CC(=O)Nc1nccc(=O)[nH]1)CC21CC1 [Compound 51, 2-{2′-Ethyl-7′-oxo-6′,7′-dihydro-5′H-spiro[cyclopropane-1,4′-thieno[2,3-c]pyridin]-6′-yl}-N-(6-oxo-1,6-dihydropyrimidin-2-yl)acetamide]	3000 to 10000
CNc1cc2c(s1)C(=O)N(CC(=O)Nc1ncccn1)CC21CC1 [Compound 74, 2-(2′-(Methylamino)-7′-oxo-5′H-spiro[cyclopropane-1,4′-thieno[2,3-c]pyridin]-6′(7′H)-yl)-N-(pyrimidin-2-yl)acetamide]	100 to 1000
C[C@@H]1CN(CC(=O)Nc2ncccn2)C(=O)c2cc3sc(Cl)cc3n21 (racemic) [Compound 9, N-Pyrimidin-2-yl-2-[rac-(12R)-4-chloro-12-methyl-9-oxo-5-thia-1,10-diazatricyclo[6.4.0.02,6]dodeca-2(6),3,7-trien-10-yl]acetamide]	1000 to 3000
O=C(CN1CC2(CC2)c2oc(C3CC3)cc2C1=O)Nc1ccc2nncn2n1 [Compound 59, 2-{2′-Cyclopropyl-4′-oxo-5′,6′-dihydro-4′H-spiro[cyclopropane-1,7′-furo[3,2-c]pyridin]-5′-yl}-N-{[1,2,4]triazolo[4,3-b]pyridazin-6-yl}acetamide]	100 to 1000
O=C(CN1CC2(CC2)c2cc(C3CC3)sc2C1=O)Nc1ncc(F)cn1 [Compound 76, 2-(2′-Cyclopropyl-7′-oxo-5′H-spiro[cyclopropane-1,4′-thieno[2,3-c]pyridin]-6′(7′H)-yl)-N-(5-fluoropyrimidin-2-yl)acetamide]	100 to 1000
CCc1cc2c(s1)C(=O)N(CC(=O)Nc1ccc(C#N)cn1)CC21CC1 [Compound 55, N-(5-Cyanopyridin-2-yl)-2-{2′-ethyl-7′-oxo-6′,7′-dihydro-5′H-spiro[cyclopropane-1,4′-thieno[2,3-c]pyridin]-6′-yl}acetamide]	1000 to 3000
CCc1cc2c(s1)C(=O)N(CC(=O)Nc1ncco1)CC21CC1 [Compound 46, 2-{2′-Ethyl-7′-oxo-6′,7′-dihydro-5′H-spiro[cyclopropane-1,4′-thieno[2,3-c]pyridin]-6′-yl}-N-(1,3-oxazol-2-yl)acetamide]	100 to 1000
O=C(CN1CC2(CC2)c2nc(C3CC3)sc2C1=O)Nc1ncccn1 [Compound 15, 2-(2-Cyclopropyl-4-oxo-spiro[6H-thiazolo[5,4-c]pyridine-7,1′-cyclopropane]-5-yl)-N-pyrimidin-2-yl-acetamide]	100 to 1000
CCc1cc2c(s1)C(=O)N(CC(=O)Nc1ncc3c(n1)[nH]c(=O)n3C)CC21CC1 [Compound 71, 2-(2′-Ethyl-7′-oxo-5′H-spiro[cyclopropane-1,4′-thieno[2,3-c]pyridin]-6′(7′H)-yl)-N-(7-methyl-8-oxo-8,9-dihydro-7H-purin-2-yl)acetamide]	1000 to 3000
CCc1cc2c(s1)C(=O)N(CC(=O)Nc1ccc3nncn3n1)CC21CC1 [Compound 45, 2-{2′-Ethyl-7′-oxo-6′,7′-dihydro-5′H-spiro[cyclopropane-1,4′-thieno[2,3-c]pyridin]-6′-yl}-N-{[1,2,4]triazolo[4,3-b]pyridazin-6-yl}acetamide]	100 to 1000
CCc1cc2c(s1)C(=O)N(CC(=O)Nc1ncc(C(F)(F)F)cc1F)CC21CC1 [Compound 56, 2-{2′-Ethyl-7′-oxo-6′,7′-dihydro-5′H-spiro[cyclopropane-1,4′-thieno[2,3-c]pyridin]-6′-yl}-N-[3-fluoro-5-(trifluoromethyl)pyridin-2-yl]acetamide]	1000 to 3000
CCc1cc2c(s1)C(=O)N(CC(=O)Nc1ncccn1)CC21CC1 [Compound 14, 2-(2-Ethyl-7-oxo-spiro[5H-thieno[2,3-c]pyridine-4,1′-cyclopropane]-6-yl)-N-pyrimidin-2-yl-acetamide]	100 to 1000
